According to US20230250098A1 (priority 2021, published 2023):
“Also recorded” adds a separate entry of the source. Read-outs that look alike come from different tables or passages of the source.

Experiments:
HA-mouse μOP = biological target: T1, HA-mouse μOP (Mus musculus, UniProt P42866); assay: GloSensor cAMP inhibition assay in transfected HEK cells; type: cell-based; details: for cAMP α: efficacy normalized to positive control DAMGO; for IC50 / cAMP pIC50: inhibition of forskolin-induced cAMP
T1 construct: HA (N); expressed in transfected cells; host or cells: HEK cells, transient transfection together with pGloSensor22F
T1 sequence (P42866 whole entry): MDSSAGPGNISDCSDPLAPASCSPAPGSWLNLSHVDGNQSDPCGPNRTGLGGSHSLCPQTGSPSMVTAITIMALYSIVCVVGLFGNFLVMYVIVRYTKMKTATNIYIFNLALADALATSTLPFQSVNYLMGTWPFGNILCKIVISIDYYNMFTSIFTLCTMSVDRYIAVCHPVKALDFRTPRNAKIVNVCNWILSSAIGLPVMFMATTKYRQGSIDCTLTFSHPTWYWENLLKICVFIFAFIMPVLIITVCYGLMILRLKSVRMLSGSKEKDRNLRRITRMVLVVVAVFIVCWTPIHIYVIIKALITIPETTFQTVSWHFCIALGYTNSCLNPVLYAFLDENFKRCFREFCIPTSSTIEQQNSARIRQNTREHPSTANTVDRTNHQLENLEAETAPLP

FLAG-mouse δOP = biological target: T2, FLAG-mouse δOP (Mus musculus, UniProt P32300); assay: as above; type: cell-based; details: for cAMP α: efficacy normalized to positive control Leu-Enk; for IC50 / cAMP pIC50: inhibition of forskolin-induced cAMP
T2 construct: FLAG (N); expressed in transfected cells; host or cells: HEK cells (HEK-293), transient transfection together with pGloSensor22F
T2 sequence (P32300 whole entry): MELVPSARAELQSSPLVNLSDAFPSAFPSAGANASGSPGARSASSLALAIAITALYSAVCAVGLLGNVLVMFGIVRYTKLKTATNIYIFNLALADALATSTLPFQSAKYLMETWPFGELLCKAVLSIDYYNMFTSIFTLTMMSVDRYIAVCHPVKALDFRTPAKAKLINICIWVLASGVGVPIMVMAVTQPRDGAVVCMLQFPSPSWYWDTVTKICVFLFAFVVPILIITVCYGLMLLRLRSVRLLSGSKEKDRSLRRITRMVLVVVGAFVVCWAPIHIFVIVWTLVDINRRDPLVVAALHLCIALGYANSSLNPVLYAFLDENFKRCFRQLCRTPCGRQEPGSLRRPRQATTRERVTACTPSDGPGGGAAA

FLAG-mouse κOP = biological target: T3, FLAG-mouse κOP (Mus musculus, UniProt P33534); type: cell-based; details: for IC50: read-out: cAMP IC50
T3 construct: FLAG (N); expressed in transfected cells; host or cells: HEK cells, transient transfection together with pGloSensor22F
T3 sequence (P33534 whole entry): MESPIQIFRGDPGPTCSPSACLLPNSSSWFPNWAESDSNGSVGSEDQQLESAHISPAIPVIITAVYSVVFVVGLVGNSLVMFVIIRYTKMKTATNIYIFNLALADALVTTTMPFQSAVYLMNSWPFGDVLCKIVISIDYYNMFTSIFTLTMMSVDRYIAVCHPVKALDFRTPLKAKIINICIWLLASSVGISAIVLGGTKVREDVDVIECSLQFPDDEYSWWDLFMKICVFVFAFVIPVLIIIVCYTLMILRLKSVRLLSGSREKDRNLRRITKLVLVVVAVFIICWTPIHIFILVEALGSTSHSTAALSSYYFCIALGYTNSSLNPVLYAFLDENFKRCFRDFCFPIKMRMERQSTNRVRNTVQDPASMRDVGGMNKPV

δOP [1] = biological target: T4, δOP (Homo sapiens, UniProt P41143); type: cell-based
T4 sequence (P41143 whole entry): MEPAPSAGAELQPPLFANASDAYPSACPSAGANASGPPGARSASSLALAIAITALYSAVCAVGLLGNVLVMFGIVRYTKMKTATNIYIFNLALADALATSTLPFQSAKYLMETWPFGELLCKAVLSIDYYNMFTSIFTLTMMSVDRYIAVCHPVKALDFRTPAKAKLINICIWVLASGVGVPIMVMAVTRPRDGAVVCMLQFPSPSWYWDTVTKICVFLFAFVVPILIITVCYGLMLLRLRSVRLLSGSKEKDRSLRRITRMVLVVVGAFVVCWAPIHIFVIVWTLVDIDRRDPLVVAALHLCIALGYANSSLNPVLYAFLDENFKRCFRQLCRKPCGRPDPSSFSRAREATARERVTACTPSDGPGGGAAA

C57Bl/6 wild-type mice [2] = assay: Two-bottle choice alcohol paradigm (drinking in the dark, 10% ethanol vs water); type: in vivo, mouse; details: for alcohol intake, in words: systemic (i.p.) injection, modified 2-bottle choice, male C57BL/6 mice, FIG. 1
C57Bl/6 wild-type mice [3] = details: cited from earlier work; for alcohol consumption, in words (previous reports): dose not stated; for alcohol intake, in words (previous reports): 10 mg·kg^−1
male, WT mice [4] = details: dose not stated; cited from earlier work
WT mice [5] = details: 7-hydroxymitragynine dose not stated; paynantheine 10 mg·kg^−1; cited from earlier work
δOP [6] = biological target: T4, δOP; type: binding; set-up: membranes isolated; details: for Binding pKi / Ki: [3H]DPDPE, CHO membranes; for Ki: read-out: Binding Ki
κOP [7] = biological target: T5, κOP (Homo sapiens, UniProt P41145); type: binding; set-up: membranes isolated; details: for Ki: read-out: Binding Ki
T5 sequence (P41145 whole entry): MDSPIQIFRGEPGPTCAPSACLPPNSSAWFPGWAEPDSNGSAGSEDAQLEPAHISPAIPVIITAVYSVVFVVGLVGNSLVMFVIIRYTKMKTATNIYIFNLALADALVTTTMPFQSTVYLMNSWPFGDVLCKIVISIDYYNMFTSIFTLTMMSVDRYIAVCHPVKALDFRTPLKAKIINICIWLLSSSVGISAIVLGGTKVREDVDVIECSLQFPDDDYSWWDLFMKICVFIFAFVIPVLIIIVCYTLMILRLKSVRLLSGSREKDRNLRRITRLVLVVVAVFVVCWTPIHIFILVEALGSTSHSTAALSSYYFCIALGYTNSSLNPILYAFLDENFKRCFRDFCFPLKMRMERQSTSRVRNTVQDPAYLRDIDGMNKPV

δOP KO mice [8] = assay: Two-bottle choice alcohol paradigm in δOP KO mice; type: in vivo, mouse; details: male δOP KO mice
male mice = assay: Tail flick thermal nociception assay; type: in vivo, mouse; details: for block of morphine analgesia (antagonist mode): 10 mg·kg^−1, then morphine 6 mg·kg^−1 s.c. 10 minutes later; for antinociception (agonist mode): 10 mg·kg^−1, 30 minutes after drug
μOP [9] = biological target: T6, μOP (Homo sapiens, UniProt P35372); type: binding; set-up: membranes isolated
T6 sequence (P35372 whole entry): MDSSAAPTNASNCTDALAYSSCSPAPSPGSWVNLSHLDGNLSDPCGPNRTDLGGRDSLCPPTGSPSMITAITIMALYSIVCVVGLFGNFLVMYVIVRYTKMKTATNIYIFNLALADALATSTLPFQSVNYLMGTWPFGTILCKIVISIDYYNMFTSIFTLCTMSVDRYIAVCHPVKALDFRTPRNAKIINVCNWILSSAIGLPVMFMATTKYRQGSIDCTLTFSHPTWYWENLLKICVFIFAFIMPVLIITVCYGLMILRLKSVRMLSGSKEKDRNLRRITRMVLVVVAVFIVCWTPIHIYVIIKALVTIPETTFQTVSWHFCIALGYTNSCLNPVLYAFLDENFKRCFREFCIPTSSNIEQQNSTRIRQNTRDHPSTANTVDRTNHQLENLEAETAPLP

WT mice [10] = assay: Locomotor evaluation; details: 10 mg·kg^−1
wildtype mice = assay: Seizure assay (modified racine scale)
male, WT mice [11] = assay: Conditioned place preference (brief and extended); details: 10 mg·kg^−1; for conditioned place preference, extended protocol: four conditioning sessions each for drug and vehicle
μOP [12] = biological target: T6, μOP; type: cell-based; details: normalized to positive control DAMGO
δOP KO mice [13] = assay: Seizure assay in δOP KO mice; details: 30 mg·kg^−1 i.p.
κOP [14] = biological target: T5, κOP; type: cell-based
WT mice [15] = assay: Accelerating rotarod test; details: 30 mg·kg^−1 i.p.
δOP KO mice [16] = assay: Accelerating rotarod test in δOP KO mice

Compound | cAMP α (HA-mouse μOP) | IC50 (HA-mouse μOP) [nM] | cAMP pIC50 (HA-mouse μOP) | cAMP α (FLAG-mouse δOP) | IC50 (FLAG-mouse δOP) [nM] | cAMP pIC50 (FLAG-mouse δOP) | cAMP pIC50 (FLAG-mouse κOP) | cAMP α (FLAG-mouse κOP) | IC50 (FLAG-mouse κOP) [nM] | alcohol intake, in words (C57Bl/6 wild-type mice [2]) | alcohol consumption, in words (previous reports) (C57Bl/6 wild-type mice [3]) | hyperlocomotion (previous reports) (WT mice [5]) | Binding pKi (δOP [6]) | Ki (δOP [6]) [nM] | Binding pKi (κOP [7]) | Ki (κOP [7]) [nM] | ethanol consumption in δOP KO mice, in words (δOP KO mice [8]; 10 mg·kg^−1) | block of morphine analgesia (antagonist mode) (male mice) | antinociception (agonist mode) (male mice) | δOP binding, in words (δOP [6]) | other results
CC[C@@H]1CN2CC[C@@]3(O)C(=Nc4cccc(OC)c43)[C@@H]2C[C@@H]1/C(=C\OC)C(=O)OC [7-OH MITRA, 7-hydroxymitragynine, reference compound] | 84 ± 3 | 16 | 7.8±0.1 | 80 ± 8 | 960 | *5.7 ± 0.2 (8) | *6.2 ± 0.3 (9) | 77 ± 5 | 1040 | reduce alcohol intake | decrease alcohol consumption | caused both CPP and hyperlocomotion | 6.7 ± 0.1 (4) | 19 | 6.9 ± 0.1 (4) | 14 | – | – | – | – | β-arrestin 2 pEC50 (δOP [1]): 6.4 ± 0.3 (6); β-arrestin 2 α (δOP [1]; normalized to positive control Leu-Enk): 14 ± 1; conditioned place preference (previous report) (male, WT mice [4]): caused both CPP and hyperlocomotion
CC[C@H]1CN2CC[C@@]3(O)C(=Nc4cccc(OC)c43)[C@@H]2C[C@@H]1/C(=C\OC)C(=O)OC [7OH SPG, 7-hydroxyspeciogynine] | 66 ± 6 | 2400 | 6.2±0.3 | 76 ± 6 | 2270 | 5.6 ± 0.1 (6) | 5.1 ± 0.3 (3) | 80 ± 20 | 7710 | – | – | – | 6.3±0.1 | 460 | 5.8 ± 0.2 (3) | 1630 | did not significantly decrease ethanol consumption; also recorded: alcohol consumption was not significantly altered | did not produce antinociception (paired, two-tailed t-test, t=0.6193, df=9, p=0.5511) or block morphine analgesia | did not produce antinociception | improved binding relative to speciogynine | cAMP inhibition at the μOP, in words (HA-mouse μOP): lowest potency at the μOP; also recorded: reduced μOP potency; cAMP inhibition at the δOP, in words (FLAG-mouse δOP): strongest activator at the δOP; difference in potency at the δOP between 7-hydroxyspeciogynine and 7-hydroxypaynantheine (FLAG-mouse δOP): 10 fold; ethanol consumption, in words (C57Bl/6 wild-type mice [2]; 3 mg·kg^−1 s.c., WT male and female mice): reduced alcohol intake; also recorded: efficacious activity; also recorded: dose-dependently decreased ethanol consumption; also recorded: significantly decreased the percent ethanol consumption; average decrease of ethanol consumption (C57Bl/6 wild-type mice [2]; 10 mg·kg^−1, WT mice): 1.2 ± 0.2 g/kg; percent reduction of ethanol consumption (C57Bl/6 wild-type mice [2]; 10 mg·kg^−1, WT mice): 40±7%; ethanol consumption, in words (C57Bl/6 wild-type mice [2]; 10 mg·kg^−1 s.c., WT mice): reduced alcohol intake; also recorded: dose-dependently decreased ethanol consumption; also recorded: significantly decreased the percent ethanol consumption; ethanol consumption in δOP KO mice, in words (δOP KO mice [8]; 3 mg·kg^−1): did not significantly decrease ethanol consumption; also recorded: alcohol consumption was not significantly altered; μOP affinity, in words (μOP [9]): strongest μOP affinity; ambulation / locomotor activity (WT mice [10]): did not significantly alter ambulation; seizure activity (wildtype mice; 10 mg·kg^−1): did not significantly alter ambulation (paired, two-tailed t-test, t=0.7552, df=6, p=0.4787) (FIG. 5B) or induce seizures; conditioned place preference, extended protocol (male, WT mice [11]): did not develop conditioned place preference
C[C@@H](NC(=O)[C@@H](N)Cc1ccc(O)cc1)C(=O)NCC(=O)N(C)[C@@H](Cc1ccccc1)C(=O)NCCO [DAMGO, (2S)-2-[[2-[[(2R)-2-[[(2S)-2-Amino-3-(4-hydroxyphenyl)propanoyl]amino]propanoyl]amino]acetyl]-methylamino]-N-(2-hydroxyethyl)-3-phenylpropanamide, reference compound] | 100 | – | – | – | – | – | – | – | – | – | – | – | – | – | – | – | – | – | – | – | β-arrestin 2 α (μOP [12]): 100
C=C[C@H]1CN2CCc3c([nH]c4cccc(OC)c34)[C@@H]2C[C@@H]1/C(=C\OC)C(=O)OC [PAYN, paynantheine, reference compound] | 100 ± 0 | 4080 | *5.4 ± 0.1 (5) | 64 ± 13 | 3550 | *5.6 ± 0.2 (4) | *5.3 ± 0.2 (4) | 95 ± 5 | 7430 | reduce alcohol intake | decrease alcohol consumption | without causing hyperlocomotion | 5.3 ± 0.1 (5) | 7820 | 5.5 ± 0.1 (5) | 4000 | did not significantly decrease ethanol consumption; also recorded: alcohol consumption was not significantly altered | did not produce antinociception (paired, two-tailed t-test, t=0.6193, df=9, p=0.5511) or block morphine analgesia | did not produce antinociception | – | alcohol intake, in words (previous reports) (C57Bl/6 wild-type mice [3]; listed as Paynantheine): decrease alcohol intake; alcohol intake, in words (previous reports) (C57Bl/6 wild-type mice [3]; listed as paynantheine): significant reduction; Binding pKi (μOP [9]; [3H]DAMGO, CHO membranes): 6.3 ± 0.1 (4); Ki (μOP [9]; [3H]DAMGO, CHO membranes, read-out: Binding Ki): 52 nM; ambulation / locomotor activity (WT mice [10]): a trend towards decreased locomotor activity; seizure activity in δOP KO mice (δOP KO mice [13]): still present in δOP KO mice; seizure activity (wildtype mice; 10 mg·kg^−1): not showing overt signs of seizure activity; seizure activity (wildtype mice; 30 mg·kg^−1): induced seizures; conditioned place preference, brief paradigm (male, WT mice [11]): induces conditioned place aversion (CPA); conditioned place preference, extended protocol (male, WT mice [11]): does not produce place preference
CC[C@@H]1CN2CCc3c([nH]c4cccc(OC)c34)[C@H]2C[C@@H]1/C(=C\OC)C(=O)OC [SPECIO, speciociliatine] | – | – | – | – | – | – | – | – | – | – | – | – | 5.4±0.1 | 4340 | 6.2 ± 0.1 (4) | 590 | – | – | – | displayed binding at the δOP | β-arrestin2 recruitment, in words (δOP [1]): no β-arrestin2 recruitment was detected; β-arrestin2 recruitment, in words (κOP [14]): no β-arrestin2 recruitment was detected; ethanol consumption, in words (C57Bl/6 wild-type mice [2]; 30 mg·kg^−1 (7-hydroxypaynantheine s.c., speciociliatine i.p.), WT male mice): significantly decreased ethanol consumption; also recorded: significant and sharp decrease in alcohol consumption; average decrease of ethanol consumption (C57Bl/6 wild-type mice [2]; 30 mg·kg^−1, WT mice): 2.5 ± 0.3 g/kg; percent reduction of ethanol consumption (C57Bl/6 wild-type mice [2]; 30 mg·kg^−1, WT mice): 90±3%; rotarod performance (time spent on the rod), in words (WT mice [15]): significantly reduced the ability of treated wildtype mice to perform in the rotarod assessment; also recorded: significantly impairs motor incoordination; also recorded: significantly decreased time spent on the rod; time of full recovery on rotarod (WT mice [15]; post-injection): 120 min; death and seizures in the rotarod assay (δOP KO mice [16]; 30 mg/kg i.p.): one δOP KO mouse died after experiencing severe, level 5-6 seizures; rotarod performance, in words (δOP KO mice [16]; 30 mg·kg^−1 i.p.): The same effect was observed in δOP KO mice; also recorded: significantly impairs motor incoordination; also recorded: significantly decreased time spent on the rod
